According to ChEMBL document CHEMBL2401692, “Synthesis, structure-activity relationships, and in vivo efficacy of the novel potent and selective anaplastic lymphoma kinase (ALK) inhibitor 5-chloro-N2-(2-isopropoxy-5-methyl-4-(piperidin-4-yl)phenyl)-N4-(2-(isopropylsulfonyl)phenyl)pyrimidine-2,4-diamine (LDK378) currently in phase 1 and phase …” (J Med Chem, 2013):

Assays:
[1] = Tmax in cynomolgus monkey at 60 mg/kg, po; type: ADME, organism-based, Macaca fascicularis; parameters: dose 60 mg/kg, route oral; conditions: in vivo
[2] = tested on: KARPAS-299; experiment: Antitumor activity against human KARPAS299 cells xenografted in Rowett nude rat assessed as tumor regression at 50 mg/kg, po for 14 days measured 7 to 72 hrs post dosing relative to control; type: functional
[3] = biological target: Transcription factor ETV6 (Homo sapiens, UniProt P41212); experiment: Inhibition of wild-type TEL (unknown origin) by cell-based assay
Sequence of Transcription factor ETV6 (P41212 whole entry): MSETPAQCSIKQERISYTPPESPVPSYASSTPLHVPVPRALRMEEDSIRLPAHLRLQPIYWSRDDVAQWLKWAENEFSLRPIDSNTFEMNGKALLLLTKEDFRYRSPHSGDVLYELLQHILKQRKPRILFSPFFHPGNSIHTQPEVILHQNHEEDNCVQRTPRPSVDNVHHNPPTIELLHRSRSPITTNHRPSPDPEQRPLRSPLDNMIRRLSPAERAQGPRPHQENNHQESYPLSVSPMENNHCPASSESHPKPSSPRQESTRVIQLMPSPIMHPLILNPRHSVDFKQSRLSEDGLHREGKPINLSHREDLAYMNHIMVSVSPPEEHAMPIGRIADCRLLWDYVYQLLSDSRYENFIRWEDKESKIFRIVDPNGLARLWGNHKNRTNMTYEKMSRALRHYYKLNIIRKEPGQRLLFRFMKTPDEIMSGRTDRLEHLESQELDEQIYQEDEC

[4] = AUC in Sprague-Dawley rat at 3 mg/kg, iv; type: ADME, organism-based; parameters: dose 3 mg/kg, route intravenous; conditions: plasma
[5] = tested on: Rattus norvegicus; experiment: Inhibition of ALK-mediated STAT3 phosphorylation in human KARPAS299 cells xenografted in Rowett nude rat at 50 mg/kg, po after 72 hrs Western blotting analysis relative to control; type: functional; conditions: KARPAS-299, 72 h
[6] = biological target: Tyrosine-protein kinase Fgr (Homo sapiens, UniProt P09769); experiment: Inhibition of TEL-fused FGR (unknown origin) by cell-based assay
[7] = Tmax in Beagle dog at 5 mg/kg, iv; type: ADME, organism-based, Canis lupus familiaris; parameters: dose 5 mg/kg, route intravenous; conditions: in vivo
[8] = biological target: Tyrosine-protein kinase ZAP-70 (Homo sapiens, UniProt P43403); experiment: Inhibition of ZAP70 (unknown origin) after 60 mins
[9] = biological target: Fibroblast growth factor receptor 4 (Homo sapiens, UniProt P22455); experiment: Inhibition of FGFR4 (unknown origin) after 60 mins
Sequence of Fibroblast growth factor receptor 4 (P22455 whole entry): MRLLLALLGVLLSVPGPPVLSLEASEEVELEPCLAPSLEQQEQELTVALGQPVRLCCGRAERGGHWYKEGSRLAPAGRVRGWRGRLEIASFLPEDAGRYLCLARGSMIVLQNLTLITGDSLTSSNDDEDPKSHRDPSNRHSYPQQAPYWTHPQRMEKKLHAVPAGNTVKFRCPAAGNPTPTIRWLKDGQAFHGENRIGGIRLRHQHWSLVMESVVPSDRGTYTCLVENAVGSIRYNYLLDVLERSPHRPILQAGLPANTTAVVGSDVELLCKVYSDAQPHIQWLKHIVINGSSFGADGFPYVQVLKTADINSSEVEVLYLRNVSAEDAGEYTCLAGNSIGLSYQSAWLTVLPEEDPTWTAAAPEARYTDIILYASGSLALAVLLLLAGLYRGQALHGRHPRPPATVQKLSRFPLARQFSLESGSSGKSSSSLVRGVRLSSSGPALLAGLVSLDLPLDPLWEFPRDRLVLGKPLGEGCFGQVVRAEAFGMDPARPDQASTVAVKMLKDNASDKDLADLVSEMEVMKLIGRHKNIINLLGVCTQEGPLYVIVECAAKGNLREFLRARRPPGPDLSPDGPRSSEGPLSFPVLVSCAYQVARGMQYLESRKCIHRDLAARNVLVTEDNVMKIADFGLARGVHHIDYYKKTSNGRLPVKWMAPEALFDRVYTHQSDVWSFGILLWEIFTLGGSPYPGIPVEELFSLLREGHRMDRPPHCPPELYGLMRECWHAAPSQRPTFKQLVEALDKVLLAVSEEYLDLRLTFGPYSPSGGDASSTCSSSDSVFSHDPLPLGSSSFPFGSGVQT

[10] = biological target: Glycogen synthase kinase-3 beta (Homo sapiens, UniProt P49841); experiment: Inhibition of GSK3beta (unknown origin) after 60 mins
[11] = biological target: MAP kinase-interacting serine/threonine-protein kinase 2 (Homo sapiens, UniProt Q9HBH9); experiment: Inhibition of MKNK2 (unknown origin) after 60 mins
[12] = biological target: T1, Fibroblast growth factor receptor 3 (Homo sapiens, UniProt P22607); experiment: Inhibition of TEL-fused FGFR3 (unknown origin) by cell-based assay
Target sequence in this assay (P22607 23-806 limits assumed): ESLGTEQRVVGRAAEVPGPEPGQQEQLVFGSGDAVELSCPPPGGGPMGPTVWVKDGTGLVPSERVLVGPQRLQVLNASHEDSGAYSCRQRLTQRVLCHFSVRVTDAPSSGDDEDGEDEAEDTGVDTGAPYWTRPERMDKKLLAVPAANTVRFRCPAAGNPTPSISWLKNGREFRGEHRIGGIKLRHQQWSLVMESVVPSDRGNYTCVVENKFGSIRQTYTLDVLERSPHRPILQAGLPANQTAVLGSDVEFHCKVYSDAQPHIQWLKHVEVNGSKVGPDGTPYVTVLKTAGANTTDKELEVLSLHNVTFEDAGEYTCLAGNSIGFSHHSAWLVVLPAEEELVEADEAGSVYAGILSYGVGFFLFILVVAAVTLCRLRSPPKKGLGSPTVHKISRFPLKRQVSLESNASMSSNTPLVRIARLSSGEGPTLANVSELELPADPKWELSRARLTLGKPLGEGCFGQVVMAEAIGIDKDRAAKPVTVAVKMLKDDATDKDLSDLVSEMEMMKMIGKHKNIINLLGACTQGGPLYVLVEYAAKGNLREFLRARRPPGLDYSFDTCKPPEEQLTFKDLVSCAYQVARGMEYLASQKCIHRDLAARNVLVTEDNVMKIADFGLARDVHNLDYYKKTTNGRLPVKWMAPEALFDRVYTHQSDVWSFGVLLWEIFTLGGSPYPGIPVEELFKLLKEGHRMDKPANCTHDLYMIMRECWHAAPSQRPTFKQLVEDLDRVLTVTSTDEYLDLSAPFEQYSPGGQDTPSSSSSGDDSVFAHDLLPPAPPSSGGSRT

[13] = biological target: Tyrosine-protein kinase JAK2 (Homo sapiens, UniProt O60674); experiment: Inhibition of TEL-fused JAK2 (unknown origin) by cell-based assay
[14] = tested on: KARPAS-299; conditions: Homo sapiens
Description: Antitumor activity against human KARPAS299 cells xenografted in po dosed Rowett nude rat assessed as tumor growth inhibition administered for 14 days measured 7 to 72 hrs post dosing

[15] = tested on: NCI-H2228; experiment: Antitumor activity against human NCI-H2228 cells xenografted in Rowett nude rat assessed as complete tumor regression at 25 mg/kg, po for 14 days measured 7 to 72 hrs post dosing relative to control; type: functional
[16] = Intrinsic clearance in rat liver microsomes; type: ADME, Microsome; conditions: read-out: CLH
[17] = Cmax in BALB/c mouse at 20 mg/kg, po; type: ADME, organism-based; parameters: dose 20 mg/kg, route oral; conditions: in vivo
[18] = Cmax in Beagle dog at 5 mg/kg, iv; type: ADME, organism-based, Canis lupus familiaris; parameters: dose 5 mg/kg, route intravenous; conditions: in vivo
[19] = Tmax in BALB/c mouse at 5 mg/kg, iv; type: ADME, organism-based; parameters: dose 5 mg/kg, route intravenous; conditions: in vivo
[20] = tested on: Rattus norvegicus; experiment: Toxicity in po dosed Rowett nude rat xenografted with human NCI-H2228 cells assessed as body weight loss at 5 to 25 mg/kg, po; type: organism-based; parameters: dose 5-25 mg/kg, route oral; conditions: in vivo
[21] = Intrinsic clearance in human liver microsomes; type: ADME, Microsome; conditions: read-out: CLH
[22] = tested on: BaF3; experiment: cells; conditions: Mus musculus
[23] = biological target: T1, Fibroblast growth factor receptor 3; experiment: Inhibition of FGFR3 (unknown origin) after 60 mins
[24] = biological target: Cytochrome P450 3A4 (Homo sapiens, UniProt P08684); experiment: Inhibition of CYP3A4 in human liver microsomes using midazolam as substrate by LC-MS/MS analysis; type: ADME, Microsome
Sequence of Cytochrome P450 3A4 (P08684 whole entry): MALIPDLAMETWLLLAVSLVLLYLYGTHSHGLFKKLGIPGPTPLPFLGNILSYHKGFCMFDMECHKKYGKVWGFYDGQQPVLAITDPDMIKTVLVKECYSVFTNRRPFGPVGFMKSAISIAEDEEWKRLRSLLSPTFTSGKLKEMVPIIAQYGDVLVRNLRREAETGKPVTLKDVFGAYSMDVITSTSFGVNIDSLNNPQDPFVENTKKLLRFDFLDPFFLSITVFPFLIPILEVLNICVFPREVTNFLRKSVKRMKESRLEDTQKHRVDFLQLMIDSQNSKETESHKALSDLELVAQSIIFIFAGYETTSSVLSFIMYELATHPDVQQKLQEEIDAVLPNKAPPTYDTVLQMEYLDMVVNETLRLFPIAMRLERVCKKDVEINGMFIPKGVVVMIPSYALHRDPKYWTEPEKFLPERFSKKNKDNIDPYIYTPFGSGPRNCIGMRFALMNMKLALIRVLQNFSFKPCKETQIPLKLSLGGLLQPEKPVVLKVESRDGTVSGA

[25] = biological target: Cyclin-dependent kinase 2 (Homo sapiens, UniProt P24941); experiment: Inhibition of CDK2 (unknown origin) after 60 mins
[26] = tested on: Rattus norvegicus; experiment: Toxicity in po dosed Rowett nude rat xenografted with human KARPAS299 cells assessed as body weight loss at 6.25 to 50 mg/kg, po; type: organism-based, KARPAS-299; parameters: dose 6.25-50 mg/kg, route oral; conditions: in vivo
[27] = biological target: Tyrosine-protein kinase ABL1 (Homo sapiens, UniProt P00519); experiment: Inhibition of ABL (unknown origin) after 60 mins
Sequence of Tyrosine-protein kinase ABL1 (P00519 whole entry): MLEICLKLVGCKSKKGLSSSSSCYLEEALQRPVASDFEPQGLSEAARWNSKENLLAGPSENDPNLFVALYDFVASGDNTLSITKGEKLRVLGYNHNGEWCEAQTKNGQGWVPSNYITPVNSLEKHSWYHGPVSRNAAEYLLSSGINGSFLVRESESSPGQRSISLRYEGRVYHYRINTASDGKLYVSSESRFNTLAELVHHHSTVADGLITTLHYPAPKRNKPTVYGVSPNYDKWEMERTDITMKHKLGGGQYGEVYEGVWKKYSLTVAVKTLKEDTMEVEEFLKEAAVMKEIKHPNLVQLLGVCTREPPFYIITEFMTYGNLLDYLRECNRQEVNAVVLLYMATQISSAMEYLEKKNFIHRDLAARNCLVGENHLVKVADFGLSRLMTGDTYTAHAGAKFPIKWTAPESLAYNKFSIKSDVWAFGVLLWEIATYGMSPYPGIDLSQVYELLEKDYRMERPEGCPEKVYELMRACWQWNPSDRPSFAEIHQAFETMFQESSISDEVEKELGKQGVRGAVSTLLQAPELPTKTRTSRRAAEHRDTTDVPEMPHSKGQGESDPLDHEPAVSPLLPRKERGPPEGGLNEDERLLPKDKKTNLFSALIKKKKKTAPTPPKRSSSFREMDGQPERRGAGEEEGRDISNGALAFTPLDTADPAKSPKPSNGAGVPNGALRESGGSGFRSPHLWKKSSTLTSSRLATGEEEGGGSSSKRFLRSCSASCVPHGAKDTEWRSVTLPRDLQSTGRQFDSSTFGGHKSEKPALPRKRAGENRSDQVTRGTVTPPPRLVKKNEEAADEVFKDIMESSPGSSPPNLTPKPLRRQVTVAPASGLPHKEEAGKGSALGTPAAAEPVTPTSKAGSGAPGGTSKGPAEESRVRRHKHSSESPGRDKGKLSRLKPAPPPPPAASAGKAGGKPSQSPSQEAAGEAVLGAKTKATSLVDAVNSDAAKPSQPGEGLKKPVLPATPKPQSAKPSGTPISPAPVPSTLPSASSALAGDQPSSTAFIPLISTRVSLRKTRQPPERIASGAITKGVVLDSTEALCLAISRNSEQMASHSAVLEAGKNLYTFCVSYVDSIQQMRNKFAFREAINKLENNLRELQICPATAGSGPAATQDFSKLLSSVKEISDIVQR

[28] = AUC in cynomolgus monkey at 60 mg/kg, po; type: ADME, organism-based, Macaca fascicularis; parameters: dose 60 mg/kg, route oral; conditions: plasma
[29] = biological target: Vascular endothelial growth factor receptor 2 (Homo sapiens, UniProt P35968); experiment: Inhibition of TEL-fused KDR (unknown origin) by cell-based assay
[30] = Drug uptake in tumor of Rowett nude rat xenografted with human KARPAS299 cells at 50 mg/kg, po; type: ADME, organism-based, Neoplasm, KARPAS-299; parameters: dose 50 mg/kg, route oral; conditions: in vivo
[31] = tested on: Rhesus monkey; experiment: Cardiotoxicity in monkey assessed as QTc prolongation; type: toxicity, organism-based, Macaca mulatta; conditions: in vivo
[32] = tested on: KARPAS-299; experiment: Antitumor activity against human KARPAS299 cells xenografted in Rowett nude rat assessed as tumor regression at 25 mg/kg, po for 14 days measured 7 to 72 hrs post dosing relative to control; type: functional
[33] = Toxicity in po dosed Rowett nude rat xenografted with human KARPAS299 cells; type: organism-based, KARPAS-299; conditions: in vivo
[34] = Cmax in cynomolgus monkey at 5 mg/kg, iv; type: ADME, organism-based, Macaca fascicularis; parameters: dose 5 mg/kg, route intravenous; conditions: in vivo
[35] = biological target: T2, Hepatocyte growth factor receptor (Homo sapiens, UniProt P08581); experiment: Inhibition of TEL-fused MET (unknown origin) by cell-based assay
Target sequence in this assay (P08581 25-1390 limits assumed): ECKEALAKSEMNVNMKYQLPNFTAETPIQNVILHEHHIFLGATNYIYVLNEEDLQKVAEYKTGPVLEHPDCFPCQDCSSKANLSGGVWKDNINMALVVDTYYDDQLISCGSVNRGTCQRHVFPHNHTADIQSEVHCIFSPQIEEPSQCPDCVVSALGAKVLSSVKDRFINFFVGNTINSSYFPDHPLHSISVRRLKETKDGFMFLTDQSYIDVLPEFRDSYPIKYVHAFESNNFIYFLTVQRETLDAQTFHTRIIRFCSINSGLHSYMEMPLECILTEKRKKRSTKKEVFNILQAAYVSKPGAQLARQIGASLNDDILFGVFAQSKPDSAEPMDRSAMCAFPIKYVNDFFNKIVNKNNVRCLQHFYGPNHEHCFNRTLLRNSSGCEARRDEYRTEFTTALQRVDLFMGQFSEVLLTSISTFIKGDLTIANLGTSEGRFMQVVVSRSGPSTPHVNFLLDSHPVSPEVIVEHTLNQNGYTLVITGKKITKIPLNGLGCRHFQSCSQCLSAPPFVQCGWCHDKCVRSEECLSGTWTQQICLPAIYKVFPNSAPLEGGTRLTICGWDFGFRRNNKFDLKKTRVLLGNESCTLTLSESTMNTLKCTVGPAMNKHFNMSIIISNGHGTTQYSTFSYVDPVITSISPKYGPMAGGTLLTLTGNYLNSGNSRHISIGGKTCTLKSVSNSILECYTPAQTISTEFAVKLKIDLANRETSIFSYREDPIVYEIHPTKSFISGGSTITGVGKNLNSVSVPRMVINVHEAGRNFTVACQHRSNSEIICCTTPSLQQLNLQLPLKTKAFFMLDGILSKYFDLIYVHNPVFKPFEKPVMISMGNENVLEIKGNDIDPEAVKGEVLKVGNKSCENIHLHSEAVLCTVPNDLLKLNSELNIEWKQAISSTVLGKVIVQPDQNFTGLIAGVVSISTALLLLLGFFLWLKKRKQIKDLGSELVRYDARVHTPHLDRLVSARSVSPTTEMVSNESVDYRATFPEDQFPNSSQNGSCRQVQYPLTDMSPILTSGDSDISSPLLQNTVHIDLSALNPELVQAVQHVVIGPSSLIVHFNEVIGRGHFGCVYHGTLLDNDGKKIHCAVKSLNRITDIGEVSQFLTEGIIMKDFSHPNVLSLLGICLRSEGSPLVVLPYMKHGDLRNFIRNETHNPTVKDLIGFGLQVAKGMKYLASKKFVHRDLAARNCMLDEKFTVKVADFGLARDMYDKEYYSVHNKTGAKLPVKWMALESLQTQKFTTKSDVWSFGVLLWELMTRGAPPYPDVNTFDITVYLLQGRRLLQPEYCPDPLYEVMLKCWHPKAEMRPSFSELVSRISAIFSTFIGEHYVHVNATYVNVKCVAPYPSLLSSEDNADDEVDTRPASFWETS

[36] = biological target: Platelet-derived growth factor receptor alpha (Homo sapiens, UniProt P16234); experiment: Inhibition of PDGFRalpha (unknown origin) after 60 mins
[37] = Plasma clearance in Beagle dog at 5 mg/kg, iv; type: ADME, organism-based, Canis lupus familiaris; parameters: dose 5 mg/kg, route intravenous
[38] = biological target: Tyrosine-protein kinase Lck (Homo sapiens, UniProt P06239); experiment: Inhibition of LCK (unknown origin) after 60 mins
[39] = in vivo; conditions: Sprague-Dawley, rat, po, 10 mg/kg
[40] = AUC in BALB/c mouse at 5 mg/kg, iv; type: ADME, organism-based; parameters: dose 5 mg/kg, route intravenous; conditions: plasma
[41] = Toxicity in po dosed Rowett nude rat xenografted with human NCI-H2228 cells; type: organism-based; conditions: in vivo
[42] = Half life in Sprague-Dawley rat at 3 mg/kg, iv; type: ADME, organism-based; parameters: dose 3 mg/kg, route intravenous; conditions: in vivo
[43] = Plasma clearance in BALB/c mouse at 5 mg/kg, iv; type: ADME, organism-based; parameters: dose 5 mg/kg, route intravenous
[44] = biological target: T2, Hepatocyte growth factor receptor
Description: Inhibition of cMET (unknown origin) after 60 mins

[45] = tested on: NCI-H2228; experiment: Antitumor activity against human NCI-H2228 cells xenografted in Rowett nude rat assessed as tumor growth inhibition factor at 5 mg/kg, po for 14 days measured 7 to 72 hrs post dosing relative to control; type: functional
[46] = Oral bioavailability in cynomolgus monkey at 60 mg/kg; type: ADME, organism-based, Macaca fascicularis; conditions: in vivo
[47] = biological target: High affinity nerve growth factor receptor (Homo sapiens, UniProt P04629); experiment: Inhibition of TEL-fused TRKA (unknown origin) by cell-based assay
[48] = Inhibition of AKT (unknown origin) after 60 mins; parameters: species or system Homo sapiens
[49] = Volume of distribution at steady state in Beagle dog at 5 mg/kg, iv; type: ADME, organism-based, Canis lupus familiaris; parameters: dose 5 mg/kg, route intravenous; conditions: in vivo, read-out: Vdss
[50] = biological target: Serine/threonine-protein kinase PAK 2 (Homo sapiens, UniProt Q13177); experiment: Inhibition of PAK2 (unknown origin) after 60 mins
[51] = Tmax in BALB/c mouse at 20 mg/kg, po; type: ADME, organism-based; parameters: dose 20 mg/kg, route oral; conditions: in vivo
[52] = Cmax in cynomolgus monkey at 60 mg/kg, po; type: ADME, organism-based, Macaca fascicularis; parameters: dose 60 mg/kg, route oral; conditions: in vivo
[53] = AUC in Sprague-Dawley rat at 10 mg/kg, po; type: ADME, organism-based; parameters: dose 10 mg/kg, route oral; conditions: plasma

Cc1cc(Nc2ncc(Cl)c(Nc3ccccc3S(=O)(=O)C(C)C)n2)c(OC(C)C)cc1C1CCNCC1 [CERITINIB]
Tmax [1]: 13 h
T/C [2]: -66%
IC50 [3]: 3250 nM
AUC [4]: 2.78 µM·h
inhibition in vivo at 50 mg/kg [5]: 80%
IC50 [6]: 1950 nM
Tmax [7]: 1.8 min
IC50 [8]: 9700 nM
IC50 [9]: 950 nM
IC50 [10]: > 10000 nM
IC50 [11]: 2240 nM
IC50 [12]: > 10000 nM
IC50 [13]: 2160 nM
TGI [14]: Dose-dependent effect
T/C [15]: -100%
microsomal CLint [16]: 10 µL/min/mg
Cmax [17]: 696 nM
Cmax [18]: 2330 nM
Tmax [19]: 1.8 min
Activity [20]: Non-toxic
microsomal CLint [21]: 19 µL/min/mg
IC50 [22]: 2480 nM
IC50 [23]: 430 nM
INH [24]: 1.5 µM
IC50 [25]: 3970 nM
Activity [26]: Non-toxic
IC50 [27]: 1250 nM
AUC [28]: 76.3 µM·h
IC50 [29]: 4210 nM
Drug uptake [30]: Active
Activity [31]: Non-toxic
T/C [32]: -33%
MTD [33]: 6.25 mg/kg
Cmax [34]: 2530 nM
IC50 [35]: 1340 nM
IC50 [36]: 1140 nM
clearance [37]: 9.2 mL/min/kg
IC50 [38]: 560 nM
Cmax [39]: 259 nM
AUC [40]: 5.63 µM·h
MTD [41]: 5 mg/kg
half-life [42]: 9.1 h
clearance [43]: 26.6 mL/min/kg
IC50 [44]: 3170 nM
T/C [45]: 67%
bioavailability [46]: 56%
IC50 [47]: 2730 nM
IC50 [48]: > 10000 nM
Vd [49]: 13.5 L/kg
IC50 [50]: > 10000 nM
Tmax [51]: 7 h
Cmax [52]: 1700 nM
AUC [53]: 6.09 µM·h
